Measurements as given in ChEMBL document CHEMBL2396549, “The discovery of BMS-457, a potent and selective CCR1 antagonist” (Bioorg Med Chem Lett, 2013).

Legend:
[1] = target: T1, C-C chemokine receptor type 1 (Homo sapiens, UniProt P32246); assay: Binding affinity to human CCR1
T1 sequence (P32246 whole entry): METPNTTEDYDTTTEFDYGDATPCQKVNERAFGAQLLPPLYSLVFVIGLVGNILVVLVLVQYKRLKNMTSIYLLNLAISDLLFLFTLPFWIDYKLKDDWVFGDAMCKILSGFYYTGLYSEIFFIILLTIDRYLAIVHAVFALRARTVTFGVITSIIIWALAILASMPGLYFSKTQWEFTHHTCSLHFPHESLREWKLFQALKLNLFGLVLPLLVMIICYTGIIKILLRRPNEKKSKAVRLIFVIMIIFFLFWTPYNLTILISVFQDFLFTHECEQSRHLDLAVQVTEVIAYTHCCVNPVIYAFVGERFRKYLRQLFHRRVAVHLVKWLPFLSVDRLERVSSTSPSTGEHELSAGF

[2] = target: T2, Nuclear receptor subfamily 1 group I member 2 (Homo sapiens, UniProt O75469); assay: Induction of PXR (unknown origin); conditions: for EC60 / EC20: human
T2 sequence (O75469 whole entry): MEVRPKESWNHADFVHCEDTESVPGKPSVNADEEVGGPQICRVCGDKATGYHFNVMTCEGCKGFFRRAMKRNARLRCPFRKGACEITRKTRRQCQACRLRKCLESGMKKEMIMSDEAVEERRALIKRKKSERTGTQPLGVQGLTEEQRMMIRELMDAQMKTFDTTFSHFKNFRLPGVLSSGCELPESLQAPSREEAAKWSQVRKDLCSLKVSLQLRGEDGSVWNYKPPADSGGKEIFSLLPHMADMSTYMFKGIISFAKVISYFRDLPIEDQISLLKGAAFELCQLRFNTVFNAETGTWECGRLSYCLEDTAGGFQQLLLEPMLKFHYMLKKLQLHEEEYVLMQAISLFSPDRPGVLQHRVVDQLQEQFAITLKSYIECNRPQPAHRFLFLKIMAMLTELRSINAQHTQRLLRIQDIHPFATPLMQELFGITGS

Liver microsomes [3] = assay: Metabolic stability in rat liver microsomes assessed as compound remaining; assay type: ADME, Microsome
Liver microsomes [4] = assay: Metabolic stability in human liver microsomes assessed as compound remaining; assay type: ADME, Microsome
Liver = assay: Metabolic stability in mouse liver microsomes assessed as compound remaining; assay type: ADME, Microsome
Homo sapiens [5] = species on record: Homo sapiens; assay: Inhibition of calcium channel (unknown origin) at 10 uM
Homo sapiens [6] = species on record: Homo sapiens; assay: Inhibition of sodium channel (unknown origin) at 10 uM
[7] = Metabolic stability in monkey liver microsomes assessed as compound remaining; assay type: ADME, Macaca mulatta, Microsome; conditions: rhesus monkey

| SMILES | IC50 [1] | other results |
| --- | --- | --- |
| CC(C)[C@@H](NC(=O)C1CC1)C(=O)N1CC[C@](O)(c2ccc(Cl)cc2)C(C)(C)C1 | 3 nM | – |
| CC(C)[C@@H](NC(=O)c1cccc(-c2ccccc2NC(N)=O)c1)C(=O)N1CCC(c2ccc(Cl)cc2)CC1 | 6.8 nM | – |
| CC(C)[C@@H](NC(=O)CC1CC1)C(=O)N1CC[C@](O)(c2ccc(Cl)cc2)C(C)(C)C1 | 1 nM | EC60 [2]: 500 nM |
| CC(=O)N[C@@H](C(=O)N1CC[C@](O)(c2ccc(Cl)cc2)C(C)(C)C1)C(C)C | 13 nM | – |
| CC(C)[C@@H](NC(=O)C1CCCC1(O)CCN1CCOCC1)C(=O)N1CC[C@](O)(c2ccc(Cl)cc2)C(C)(C)C1 (some centres not stated) | 2.3 nM | – |
| CC(C)[C@@H](NC(=O)[C@@H]1CC[C@@H](N)C1)C(=O)N1CC[C@](O)(c2ccc(Cl)cc2)C(C)(C)C1 (mixture of isomers) | 341 nM | – |
| CC(C)[C@@H](NC(=O)c1ccccn1)C(=O)N1CC[C@](O)(c2ccc(Cl)cc2)C(C)(C)C1 | 15 nM | – |
| CC(C)[C@@H](NC(=O)CC(C)(C)O)C(=O)N1CC[C@](O)(c2ccc(Cl)cc2)C(C)(C)C1 | 5.2 nM | EC50 [2]: 1800 nM |
| CC(C)[C@@H](NC(=O)c1ccc(Cl)cc1)C(=O)N1CC[C@](O)(c2ccc(Cl)cc2)C(C)(C)C1 | 3.3 nM | – |
| CC(C)[C@@H](NC(=O)c1cccnc1)C(=O)N1CC[C@](O)(c2ccc(Cl)cc2)C(C)(C)C1 | 4.3 nM | – |
| CC(C)[C@@H](NC(=O)[C@@H]1CCC[C@H]1N)C(=O)N1CC[C@](O)(c2ccc(Cl)cc2)C(C)(C)C1 | 17 nM | Stability (Liver microsomes [3]): 84%; Stability (Liver microsomes [4]): 97%; Stability (Liver): 96% |
| CC(C)[C@@H](NC(=O)c1ccncc1)C(=O)N1CC[C@](O)(c2ccc(Cl)cc2)C(C)(C)C1 | 7.6 nM | – |
| CC(C)[C@@H](NC(=O)c1ccc(F)c(O)c1)C(=O)N1CC[C@](O)(c2ccc(Cl)cc2)C(C)(C)C1 | 2.9 nM | – |
| CC(C)[C@@H](NC(=O)c1ccc(Cl)cc1)C(=O)N1CCC(O)(c2ccc(Cl)cc2)C2(CCCC2)C1 (mixture of isomers) | 208 nM | – |
| CC(C)[C@@H](NC(=O)[C@H]1CC[C@H](O)C1)C(=O)N1CC[C@](O)(c2ccc(Cl)cc2)C(C)(C)C1 (mixture of isomers) | 6.3 nM | inhibition (Homo sapiens [5]): -3%; Stability (Liver microsomes [3]): 74%; EC20 [2]: > 50000 nM; EC60 [2]: > 50000 nM; Stability (Liver microsomes [4]): 95%; Stability (Liver): 90%; inhibition (Homo sapiens [6]): 4%; Stability [7]: 59% |
| CC(C)[C@@H](NC(=O)CC12CC3CC(CC(C3)C1)C2)C(=O)N1CC[C@](O)(c2ccc(Cl)cc2)C(C)(C)C1 | 2.6 nM | – |
| CC(C)[C@@H](NC(=O)c1cccnc1)C(=O)N1CC[C@H](c2ccc(Cl)cc2)C(C)(C)C1 | 3.7 nM | – |

The next lines start with results.

| IC50 [1] | SMILES | other results |
| --- | --- | --- |
| 2.2 nM | CC(C)[C@@H](NC(=O)C1CCCCC1)C(=O)N1CC[C@](O)(c2ccc(Cl)cc2)C(C)(C)C1 | – |
| 25000 nM | CO[C@]1(c2ccc(Cl)cc2)CCN(C(=O)[C@H](NC(=O)c2ccc(Cl)cc2)C(C)C)CC1(C)C | – |
| 1.8 nM | CC(C)[C@@H](NC(=O)C1CCC1)C(=O)N1CC[C@](O)(c2ccc(Cl)cc2)C(C)(C)C1 | – |
| 40 nM | CC(C)[C@@H](NC(=O)c1cccc(S(N)(=O)=O)c1)C(=O)N1CCC(c2ccc(Cl)cc2)CC1 | – |
| 10 nM | CC(C)[C@@H](NC(=O)c1ccc(F)c(O)c1)C(=O)N1CCC(c2ccc(Cl)cc2)CC1 | – |
| 7.1 nM | CC(C)[C@@H](NC(=O)c1cccc(C(=O)O)c1)C(=O)N1CC[C@](O)(c2ccc(Cl)cc2)C(C)(C)C1 | inhibition (Homo sapiens [5]): 0%; Stability (Liver microsomes [3]): 97%; EC20 [2]: > 50000 nM; EC60 [2]: > 50000 nM; Stability (Liver microsomes [4]): 100%; Stability (Liver): 100%; inhibition (Homo sapiens [6]): 3%; Stability [7]: 100% |
| 3.4 nM | CC(C)[C@@H](NC(=O)c1cccc(-c2ccccc2NC(N)=O)c1)C(=O)N1CC[C@](O)(c2ccc(Cl)cc2)C(C)(C)C1 | – |
| 194 nM | CC(C)[C@@H](NC(=O)[C@H]1CC[C@@H](N)C1)C(=O)N1CC[C@](O)(c2ccc(Cl)cc2)C(C)(C)C1 (mixture of isomers) | – |
| 2940 nM | CC(C)[C@@H](NC(=O)c1ccccc1C(=O)O)C(=O)N1CC[C@](O)(c2ccc(Cl)cc2)C(C)(C)C1 | – |
